Counter-ions that a name gives are not always drawn.
Experiments:
shunt pathway = assay: Test Code 036 (C-Shunt inhibitor): lysis of fragile human erythrocytes in autologous serum via shunt pathway activated by cobra venom factor; assay type: cell-based; conditions: serial twofold dilution assay, higher well number indicates higher activity
Text: (§1) An active inhibitor protects C2 from C1 and C4; (ii) Test Code 035 (C3-C9 inhibitor)--This test determines the ability of the late components of human complement (C3-C9) to lyse EAC 142 in the presence of appropriate dilutions of the test compound. An active inhibitor protects EAC 142 from lysis by human C3-C9; (iii) Test Code 036 (C-Shunt inhibitor)--In this test human erythrocytes rendered fragile are lysed in autologous serum via the shunt pathway activated by cobra venom factor in the presence of appropriate dilutions of the test compound. Inhibition of the shunt pathway results in failure of lysis; (iv) Cap 50 Test--Here, appropriate amounts of the test compound are added to a pool of guinea pig serum in vitro, after which the complement level is determined in undiluted serum by the serum capillary tube assay of U.S. Pat. No. 3,876,376. The concentration of compound inhibiting 50% is reported; and (v) Guinea Pig Intraperitoneal Test (GPIP)--Guinea pigs weighing about 300 g are dosed intraperitoneally (i.p.) with 200 mg/kg of the test compound dissolved in saline and adjusted to pH 7-8. […] Percent inhibition is calculated by comparison with simultaneous controls. […]

[1] = test system: late components of human complement (C3-C9); assay: Test Code 035 (C3-C9 inhibitor): lysis of EAC 142 by late components of human complement; assay type: cell-based; conditions: serial twofold dilution assay, higher well number indicates higher activity
Text: as §1

human C1 = assay: Test Code 026 (C1 inhibitor): ability of activated human C1 to destroy fluid phase human C2 in the presence of C4; assay type: biochemical; conditions: serial twofold dilution assay, higher well number indicates higher activity
Text: as §1

complement = assay: in vivo complement inhibition in guinea pig (GPIP test), capillary complement assay of sera; conditions: Intravenous, i.p. 200 mg/kg
[2] = literature reports; cited from earlier work
[3] = test system: total hemolytic complement activity (human serum); conditions: in vitro and in vivo, Pathol. Biol. 25 (1977); cited from earlier work
complement system = conditions: Br. J. Exp. Pathol. 33: 327 (1952); cited from earlier work

O=C(Nc1cccc(S(=O)(=O)Nc2cccc(S(=O)(=O)Nc3cccc(S(=O)(=O)Nc4cc(S(=O)(=O)O)cc5cc(S(=O)(=O)O)cc(S(=O)(=O)O)c45)c3)c2)c1)Nc1cccc(S(=O)(=O)Nc2cccc(S(=O)(=O)Nc3cccc(S(=O)(=O)Nc4cc(S(=O)(=O)O)cc5cc(S(=O)(=O)O)cc(S(=O)(=O)O)c45)c3)c2)c1 [8,8'-[Ureylenebis[[[[[[[(m-phenylenesulfonyl)imino]-m-phenylene]sulfonyl]imino]-m-phenylene]sulfonyl]-imino]]-1,3,6-naphthalenetrisulfonic acid, hexasodium salt]
in vitro Activity C-Shunt Inhibition 036* Wells (shunt pathway): +1 Wells | in vitro Activity C-Late 035* Wells [1]: +4 Wells | in vitro Activity C1 026* Wells (human C1): +4 Wells

O=C(Nc1ccc(C(=O)Nc2ccc(C(=O)Nc3ccc(C(=O)Nc4cc(S(=O)(=O)O)cc5cc(S(=O)(=O)O)cc(S(=O)(=O)O)c45)c(S(=O)(=O)O)c3)c(S(=O)(=O)O)c2)c(S(=O)(=O)O)c1)Nc1ccc(C(=O)Nc2ccc(C(=O)Nc3ccc(C(=O)Nc4cc(S(=O)(=O)O)cc5cc(S(=O)(=O)O)cc(S(=O)(=O)O)c45)c(S(=O)(=O)O)c3)c(S(=O)(=O)O)c2)c(S(=O)(=O)O)c1 [8,8'-Ureylenebis[tris[(2-sulfo-p-phenylenecarbonyl)imino]]-di-1,3,6-naphthalenetrisulfonic acid, dodecasodium salt]
in vivo Activity (Guinea Pig) % Inhibition (complement; Time 2 Minutes): 95% | in vivo Activity (Guinea Pig) % Inhibition (complement; Time 30 Minutes): 54% | in vivo Activity (Guinea Pig) % Inhibition (complement; Time 120 Minutes): 14% | in vitro Activity C-Late 035* Wells [1]: +2 Wells | in vitro Activity C1 026* Wells (human C1): +5 Wells

NC[C@H]1CC[C@H](C(=O)O)CC1 [tranexamic acid]
treatment of hereditary angioneurotic edema [2]: used with success in the treatment of hereditary angioneurotic edema

pentosanpolysulfoester
anticomplementary activity (reduction in total hemolytic complement activity) [3]: anticomplementary activity on human serum, both in vitro and in vivo

heparin
anti-complementary effect (complement system): anti-complementary effect

NCCCCCC(=O)O [epsilon-aminocaproic acid]
treatment of hereditary angioneurotic edema [2]: used with success in the treatment of hereditary angioneurotic edema

Nc1ccc2cc(S(=O)(=O)[O-])cc(O)c2c1N=Nc1ccc(NC(=O)Nc2ccc(N=Nc3c(N)ccc4cc(S(=O)(=O)[O-])cc(O)c34)c(S(=O)(=O)[O-])c2)cc1S(=O)(=O)[O-].[Na+].[Na+].[Na+].[Na+] [chlorazol fast pink, 3,3'-ureylenebis[6-(2-amino-8-hydroxy-6-sulfo-1-naphthylazo)benzenesulfonic acid], tetrasodium salt]
anti-complementary effect (complement system): anti-complementary effect

From patent US4387059A, “Ureylenebis substituted (or unsubstituted) phenylene-carbonyl (or sulfonyl)-imino-1,3,5 or 6-naphthalene-trisulfonic acids and salts” (American Cyanamid Company, priority 1981, dated 1983)
